# Experimental data as given in patent US10996215B2, “Methods for determining drug efficacy for the treatment of diffuse large B-cell lymphoma, multiple myeloma, and myeloid cancers” (CELGENE CORPORATION, priority 2013, dated 2021).
# Experiments:
# ABC-DLBCL cell line = experiment: Tandem Mass Tag proteomics, lenalidomide vs Compound A; type: cell-based; conditions: 24 h
# Excerpt: Cells were harvested and proteins were fractionated using a basic pH reverse gradient method. Fractionated samples were labeled using a Tandem Mass Tag method.
# [1] = system: DLBCL cell lines (GCB and ABC); experiment: tritiated thymidine incorporation proliferation assay; type: cell-based
# Protocol: Cells were then cultured for 3 days at 37° C. Tritiated thymidine was applied to the cell culture for the final 6 hours and cells were then harvested onto filter plates. After the plates have dried, scintillation fluid was added to the plates and read on a Top-count reader.
# The cells were then analyzed for proliferation using a ^3H-thymidine incorporation assay.
# Proliferation was assessed through tritiated thymidine incorporation.
# [2] = system: Aiolos, Ikaros, IRF4, Cereblon; experiment: Western blot of Aiolos, Ikaros, IRF4, Cereblon in DLBCL cell lines; type: cell-based, human
# Protocol: Immunoblots were probed with antibodies recognizing: Aiolos, Ikaros, Cereblon, IRF4, c-myc, CD44, EZH2, EBF 1, PU. 1, and β-actin. Signals were detected with a LI-COR imager
# The following steps can be performed to harvest cells in preparation for Western Blot analysis. The steps are performed on ice and any centrifugation is performed in a 4° C. refrigerated centrifuge. RIPA lysis buffer (Pierce, cat #89900) is first prepared by adding […] proteinase inhibitors (Pierce, cat #78443) to 1 mL of RIPA buffer. Subsequently, cells are washed once in ice-cold phosphate buffered saline (PBS). The cells are then lysed with 0.25 mL RIPA lysis buffer. The PBMCs are placed on ice for 30 minutes and vortexed every 10 minutes. Lysates are frozen and stored at −80° C. prior to further processing.
# Lysates are placed in a QIAshredder® tube (QIAGEN, cat #79656) and spun down 30 sec, top speed (13200 rpm) in an Eppendorf benchtop centrifuge (Model 5415 R). The lysate is then transferred to a 1.5 mL clear Eppendorf tube and spun down 10 min at top speed. The supernatent is collected without disturbing the cell debris pellet. The supernatent is dry ice frozen and stored at −80° C. prior to analysis.
# The protein concentration in supernatent is measured using BCA assay and the expected protein yield is about 0.5-5 μg/μL, or 125-1250 μg total. Approximately ≥10 μg protein per lane is loaded for western blotting (IRF4, IKZF3, etc.) using antibodies against the human proteins.
# Membranes are immunblotted with anti-Aiolos (Santa Cruz Biotechnology, Dallas, Tex.), anti-Ikaros (Millipore, Billerica, Mass.) and anti-Actin (Sigma, St. Louis, Mo.; or LI-COR Biosciences, Lincoln, Nebr.) and secondary antibodies (LI-COR Biosciences, Lincoln, Nebr.). The blots are analyzed on Odyssey imager (LI-COR Biosciences, Lincoln, Nebr.).
# Aiolos = experiment: Western blot of Aiolos in GCB and ABC cell lines, 24 or 72 hours; type: cell-based; conditions: ABC and GCB DLBCL cell lines
# Protocol: Aiolos or β-actin (control) protein levels were analyzed by Western blotting, essentially as described in Section 6.8.
# [3] = system: TMD8 (ABC) or Karpas 422 (GCB) cells; experiment: competition with lenalidomide for CRBN, 3H-thymidine proliferation; type: cell-based; conditions: TMD8 or Karpas 422; co-treatment with 10 μM lenalidomide; competition of binding to the CRBN complex
# Aiolos, Ikaros, ZFP91 = experiment: Western blot in myeloma, lymphoma and primary B cells; type: cell-based; conditions: U266, DF15, RPMI8226, OCI-LY10, WSU-DLCL2, WSU-DLCL2 Compound A resistant, primary B cells; 8 hours
# Protocol: Multiple myeloma cells (U266, DF15, RPMI8226), diffuse large B cell lymphoma cells (OCI-LY10, WSU-DLCL2, WSU-DLCL2 Compound A resistant), and primary B cells were treated with DMSO, […] or […] for 8 hours. Cells were harvested and were treated in cell lysis buffer to generate cell lysates. Proteins from cell lysate were separated by gel electrophoresis (10% SDS-PAGE) and transferred to nitrocellulose membranes. Immunoblots were then probed with antibodies recognizing Aiolos, CRBN, Ikaros, ZFP91 (LSBio), IRF4, IRF7, Myc, and β-actin (Li-Cor).
# HNT-34 = experiment: 4 d BrdU cell assay / tritiated thymidine, sensitivity; type: cell-based; conditions: FIG. 22B
# Protocol: (§1) Sensitivity to lenalidomide treatment in a panel of myeloid cancer cell lines was evaluated by tritiated thymidine and/or BrdU assays.
# MDS-L = experiment: as above; type: cell-based; conditions: FIG. 22B
# Protocol: as §1
# [4] = 3 days, tritiated thymidine incorporation
smiles,measurement,setting,value
"Cc1nc2cccc(N)c2c(=O)n1C1CCC(=O)NC1=O (stereo not shown) [Compound A, 3-(5-amino-2-methyl-4-oxo-4H-quinazolin-3-yl)-piperidine-2,6-dione]",overall effect on protein abundance compared to lenalidomide,"ABC-DLBCL cell line; 10 uM each, log2 ratios vs DMSO",generally stronger effect
same,"gradient of regression line, log2 ratios of lenalidomide and Compound A plotted against each other","ABC-DLBCL cell line; 10 uM each, r2=0.752, intercept 0.03",1.45
same,effect on CSNK1A1 protein,"ABC-DLBCL cell line; ABC-DLBCL cell line, 10 uM, vs DMSO",does not appear to affect
same,sensitivity of ABC DLBCL cell lines,[1],sensitive
same,activity in some GCB DLBCL compared to lenalidomide (proliferation),[1]; [4],Differential activity
same,potency in ABC DLBCL (proliferation),[1]; [4],more potent than lenalidomide
same,IRF4 levels,"[2]; DLBCL cell lines, 1 μM or 10 μM, within 72 hours",reduce
same,Aiolos levels,"[2]; Karpas 422 (GCB) and TMD8 (ABC), 10 μM, 1, 6 or 12 hours, vs DMSO",decrease
same,Aiolos and Ikaros levels,"[2]; WSU-DLCL2 (GCB) and OCI-LY10 (ABC), 10 μM, 1, 6 or 12 hours, vs DMSO",decreasing
same,CRBN levels,"[2]; nine GCB and ABC DLBCL cell lines, 1 μM or 10 μM, 72 hours",remained constant
same,Aiolos and Ikaros levels,"[2]; nine GCB and ABC DLBCL cell lines, 1 μM or 10 μM, 72 hours, vs DMSO",decreasing
same,Aiolos protein levels,Aiolos,decrease in a dose-dependent manner
same,anti-proliferative effects on co-treatment with lenalidomide,[3],blocks anti-proliferative effects of Compound A
same,"levels of Aiolos, Ikaros, and ZFP91","Aiolos, Ikaros, ZFP91",reduced
same,sensitivity of HNT-34 cells,HNT-34,only MDS-L cells were sensitive to Compound A
same,sensitivity of MDS-L cells,MDS-L,sensitive
